Assay results taken from US20210128492A1, “COMPOSITION FOR PREVENTING AND/OR IMPROVING BRAIN DYSFUNCTION COMPRISING A LUTEIN OR SALT THEREOF AND A PLANT PRODUCT OF THE GENUS TRAPA” (Santen Pharmaceutical Co., Ltd., priority 2017, published 2021).

Experiments:
[1] = test system: Slc:ddY (SPF) mice injected with β-amyloid solution; test: Y-maze test (spontaneous alternation test) in mice injected with β-amyloid solution; assay type: in vivo, mouse
Method: Slc:ddY (SPF:Specific-Pathogen-Free) mice (Supply Resource: Japan SLC, Inc.) received the administration a sample (Vehicle control, Trapa japonica extract, Lutein, or Trapa japonica extract+Lutein) and then the injection of β-amyloid solution. For the mice, Y-maze test was performed to evaluate the improvement effects of Trapa japonica extract, Lutein, and a combination thereof on learning disorder. The test was performed twice. The Y-maze test was performed according to Takayoshi MAMIYA et al., “Effects of Pre-Germinated Brown Rice on β-Amyloid Protein-Induced Learning and Memory Deficits in Mice”, Biol. Pharm. Bull., July 2004, 27(7), 1041-1045 to evaluate the effects.
Male, 5-week-old, Slc:ddY (SPF) mouse(Body weight: 23˜28 g: n=32)
According to the following procedure, model mice were made using the above mice: Each mouse was anesthetized with the intraperitoneal administration (dosing volume: 10 mL/kg) of pentobarbital sodium (TOKYO CHEMICAL INDUSTRY CO., LTD.) at 40 mg/kg. After anesthesia, levobupivacaine hydrochloride (POPSCAINE® 0.25% injection, Maruishi Pharmaceutical Co., Ltd.) (0.1 mL) was administered subcutaneously into the scalp of the mouse. The hair on the top of the mouse was trimmed, and the head part was fixed to a brain stereotactic device. The scalp of the mouse was sterilized with iodine tincture, and then the head part was incised to expose the skull and the connective tissue on the skull was removed with a cotton swab. The treated skull was dried with a blower to find the position of bregma more easily. A hole for inserting a stainless steel pipe was drilled in the skull at 1 mm to the right and 0.2 mm behind bregma with a dental drill. The stainless steel pipe connected to a silicon tube with an outside diameter of 0.5 mm and a micro syringe was perpendicularly inserted to a depth of 2.5 mm from the bone surface. 3 μL of a β-amyloid solution ([…]) was injected (in the sham operation group, 3 μL of water for injection was injected) into the cerebral ventricle with a microsyringe pump for 3 minutes. After the injection, the inserted stainless steel pipe was allowed to stand for 3 minutes, and then the pipe was slowly removed. After removing the stainless steel pipe, the cranial was closed with a non-absorbable myelostatic agent (NESTOP®, Alfresa Pharma Co., Ltd.) and the scalp was sutured. The mouse were removed from the brain stereotactic device and returned to the breeding cage.
The β-amyloid solution was prepared by dissolving β-amyloid (Amyloid-β Protein(25-35); Polypeptide Laboratories) to 2 mM with water for injection and incubating the solution in the constant temperature storage at 37° C. for 4 days. Water for injection was used as the vehicle for sham operation. […]

[2] = test system: pyramidal cell layer of the hippocampus CA1 region; test: Histopathological assessment of KB stained brain specimens from the mice of Test Example 1; assay type: in vivo, mouse
Method: The brain was isolated from the mice in each group of Test Example 1 to prepare histopathological specimens, and the histopathological assessment of the prepared histopathological specimens was performed. Such test was performed twice. Each mouse in each group of Test Example 1 was anesthetized with an isoflurane solution and the chest of the mouse was opened to expose the heart. The exposed heart was cut into the auricle thereof. A polypropylene disposable syringe with an injection needle was used, the injection needle thereof was inserted from left ventricle and about 30 mL of ice-cooled saline was injected into the heart, and then the heart was perfused with about 30 mL of 10 vol % formalin neutral buffer solution. […] The isolated brain was embedded in paraffin according to any conventional method, one histopathological section was discontinuously prepared at around bregma-1.70 mm and around bregma-2.80 mm, respectively, and then Klüver-Barrera stained (KB stained) tissue specimens were prepared from each section. The cut brain was stored in 10 vol % formalin neutral buffer solution. • 1) For each specimen, the images of pyramidal cell layers of the hippocampus CA1 region closest to bregma-1.70 mm and bregma-2.80 mm from the optical microscope image (George Paxinos and Keith B. J. Franklin. (2013). The Mouse Brain in stereotaxic coordinates.

[3] = 8 minutes, about 1 hour after administration on the 14th day, gavage once per day for 14 days (Trapa japonica extract 2 mg/kg, Lutein 0.4 mg/kg, combination 2 + 0.4 mg/kg), β-amyloid on day 8, average of n=10
[4] = β-amyloid model mice, 14 days gavage

In the case of `CC1=C[C@H](O)CC(C)(C)[C@H]1/C=C/C(C)=C/C=C/C(C)=C/C=C/C=C(C)/C=C/C=C(C)/C=C/C1=C(C)C[C@@H](O)CC1(C)C` [Lutein, (3R,3′R,6′R)-β,ε-carotene-3,3′-diol], the Spontaneous alternation rate [1, 3] is reported as 59.3%, the “The number of spontaneous alternation” value [1, 3] is reported as 21.2 Count and the “The total number of entries” value [1, 3] is reported as 37.0 Count. The “Spontaneous alternation rate as compared to the vehicle control group (in words)” value [1, 4] was “not improved”, the “Area of pyramidal cell layer” value ([2]; hippocampus CA1 region, KB stained specimens, mice of Test Example 1 (gavage 14 days; Trapa japonica extract 2 mg/kg, Lutein 0.4 mg/kg, combination 2 + 0.4 mg/kg), average of n=2) was 224874 μm^2 and the “Area of pyramidal cell layer of the hippocampus CA1 region as compared to the vehicle control group (in words)” value [2, 4] was “increased”.
